From ChEMBL document CHEMBL1123689, “Quantitative structure-activity analysis in dihydropteroate synthase inhibition by sulfones. Comparison with sulfanilamides” (J Med Chem, 1987) come the findings set out here.

Values joined by “and” are separate entries in the source; they are usually repeats but may differ in a detail not shown here. Equal values may be shown once.

Data set [1] deals with T1, Dihydropteroate synthase (Escherichia coli K-12) (UniProt P0AC13).
T1 sequence (whole entry): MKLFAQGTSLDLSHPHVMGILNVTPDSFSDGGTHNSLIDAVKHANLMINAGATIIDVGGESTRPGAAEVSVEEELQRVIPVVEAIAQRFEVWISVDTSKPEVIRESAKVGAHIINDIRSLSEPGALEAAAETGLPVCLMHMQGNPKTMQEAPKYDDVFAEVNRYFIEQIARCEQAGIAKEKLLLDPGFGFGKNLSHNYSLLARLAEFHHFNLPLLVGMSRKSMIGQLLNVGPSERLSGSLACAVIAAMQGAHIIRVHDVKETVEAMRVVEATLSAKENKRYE
In words: Inhibition of dihydropteroate synthase of Escherichia coli.

For data set [2], the system named is Mycobacterium 607. In words: Inhibition of Dihydropteroate synthase of Mycobacterium 607 and log (1/MIC) was reported.
A short description of data set [3]: pKa value by spectrophotometrically at pH 8.2 (for mono ionic form). The format is physicochemical. To be noted: read-out: pKa1.
A short description of data set [4]: pKa value was determined by spectrophotometrically at pH 8.2 (for di ionic form ). The class given is physicochemical. To be noted: read-out: pKa2.
A short description of data set [5]: pKa value by spectrophotometrically at pH 8.2. The class given is physicochemical.
Data set [6] is described as follows: pKa value by spectrophotometrically at pH 8.2 (for di ionic form ). The class given is physicochemical. The conditions noted are these: read-out: pKa2.

On to `Cc1cc(C)c(S(=O)(=O)c2ccc(N)cc2)c(C)c1`, for which, in data set [1], the EII50 was 1.69.

For `Nc1ccc(S(=O)(=O)c2ccccc2N)cc1`, the EII50 in data set [1] was 2.27. Besides, in data set [2], the Log 1/MIC is 4.35.

In turn, `Nc1ccc(S(=O)(=O)c2ccc(Cl)cc2Cl)cc1` yielded an EII50 in data set [1] of 2.24.

In data set [1], `CCN(CC)C(=O)c1ccc(S(=O)(=O)c2ccc(N)cc2)cc1` displayed an EII50 of 49.1.

In turn, `NC(=O)c1ccc(S(=O)(=O)c2ccc(N)cc2)cc1` gave an EII50 in data set [1] of 22.6.

Consider `Nc1ccc(S(=O)(=O)c2ccc(O)cc2O)cc1`, for which the pKa in data set [3] came to 7.67; in data set [4], 10.1. For the same molecule, the EII50 in data set [1] worked out at 0.71.

With `COc1ccc(S(=O)(=O)c2ccc(N)cc2)c(OC)c1`, in data set [1], the EII50 was found to be 3.21.

`Nc1ccc(S(=O)(=O)c2ccc(NC=O)cc2)cc1`: the EII50 in data set [1] was found to be 5.79. Further, the Log 1/MIC in data set [2] turned out to be 4.74.

In turn, `CC(=O)c1ccc(S(=O)(=O)c2ccc(N)cc2)cc1` came in with an EII50 in data set [1] of 43.4.

Molecule `CN(C)c1ccc(S(=O)(=O)c2ccc(N)cc2)cc1` showed an EII50 in data set [1] of 3.63.

`Nc1ccc(S(=O)(=O)c2ccc(N)cc2)cc1`: the EII50 in data set [1] came out at 2.64.

In turn, `Nc1ccc(S(=O)(=O)c2ccc(N)cc2N)cc1` returned an EII50 in data set [1] of 1.59.

As for `Nc1ccc(S(=O)(=O)c2ccc(O)cc2)cc1`, in data set [1], the EII50 is 1.5 and 2.45. This molecule registered a Log 1/MIC in data set [2] of 5.96.

The molecule `COc1cc(OC)c(S(=O)(=O)c2ccc(N)cc2)c(OC)c1` displayed an EII50 in data set [1] of 12.9.

For the molecule `Cc1ccc(S(=O)(=O)c2ccc(N)cc2)cc1`, in data set [1], the EII50 came to 6.04.

For the molecule `Cc1ccc(S(=O)(=O)c2ccc(N)cc2)c(C)c1`, the EII50 in data set [1] was 1.89.

In data set [1], `Nc1ccc(S(=O)(=O)c2ccc(Br)cc2)cc1` came in with an EII50 of 11.1. For the same molecule, the Log 1/MIC in data set [2] stood at 3.59.

Regarding `Nc1ccc(S(=O)(=O)c2ccc(Cl)cc2)cc1`, the EII50 in data set [1] worked out at 20.8.

In turn, `COC(=O)c1ccc(S(=O)(=O)c2ccc(N)cc2)cc1` registered an EII50 in data set [1] of 34.

In turn, `Nc1ccc(S(=O)(=O)c2ccc(NO)cc2)cc1` showed an EII50 in data set [1] of 4.53. Further, the Log 1/MIC in data set [2] came to 4.46.

For the molecule `Nc1ccc(S(=O)(=O)c2ccc(C(=O)O)cc2)cc1`, the EII50 in data set [1] was found to be 5.09. In data set [5], this molecule displayed a pKa of 3.6.

For the molecule `Nc1ccc(S(=O)(=O)c2ccc([N+](=O)[O-])cc2[N+](=O)[O-])cc1`, the EII50 in data set [1] was 36.3.

In data set [1], `Nc1ccc(S(=O)(=O)c2cccc(N)c2)cc1` had an EII50 of 6.04. The same molecule came in with a Log 1/MIC in data set [2] of 4.62.

`COc1ccc(S(=O)(=O)c2ccc(N)cc2)cc1` registered an EII50 in data set [1] of 6.6. The Log 1/MIC in data set [2] turned out to be 4.02.

As to `N#Cc1ccc(S(=O)(=O)c2ccc(N)cc2)cc1`, in data set [1], the EII50 is 67.3.

`Nc1ccc(S(=O)(=O)c2ccc([N+](=O)[O-])cc2)cc1` returned an EII50 in data set [1] of 45.3. In addition, the Log 1/MIC in data set [2] is 3.36.

As for `CCNc1ccc(S(=O)(=O)c2ccc(N)cc2)cc1`, the EII50 in data set [1] stood at 4.53. Moreover, the Log 1/MIC in data set [2] amounted to 4.26.

Turning to `Nc1ccc(S(=O)(=O)c2c(O)cc(O)cc2O)cc1`, the pKa in data set [3] stood at 7.69; in data set [6], 9.62. The EII50 in data set [1] was 1.46 and 1.91.

Molecule `Nc1ccc(S(=O)(=O)c2ccc(F)cc2)cc1` showed an EII50 in data set [1] of 18.1. This molecule also yielded a Log 1/MIC in data set [2] of 3.5.

In data set [1], `Nc1ccc(S(=O)(=O)c2ccccc2)cc1` returned an EII50 of 9.56.

With `CC(=O)Nc1ccc(S(=O)(=O)c2ccc(N)cc2)cc1`, the EII50 in data set [1] came to 5.75.

As for `Nc1ccc(S(=O)(=O)c2c(Cl)cc(Cl)cc2Cl)cc1`, in data set [1], the EII50 amounted to 3.31.

With `CCN(CC)c1ccc(S(=O)(=O)c2ccc(N)cc2)cc1`, in data set [1], the EII50 is 2.64.
